Values quoted from earlier work as cited in patent US11766411B2, “Use of cannabinoids in the treatment of epilepsy” (GW Research Limited, priority 2014, dated 2023).

Settings: Consroe et al., 1977; cited from earlier work

CCCCCc1cc(O)c2c(c1)OC(C)(C)[C@@H]1CCC(C)=C[C@@H]21 [THC, Tetrahydrocannabinol]
effect on convulsions: pro-convulsant
